Converted amounts (≈) assume the structure as drawn. “And” between values parts separate entries of the source, which are not always exact repeats. Equal values may be shown once.
Legend:
Assay in all cases: ≥ marks a high value that may be exact or a test limit, other limits are often not marked, values filed in µg/mL are converted to µM
[1] = system: Pseudomonas aeruginosa Ps4
Bacillus subtilis C971 = system: Bacillus subtilis C971
[2] = system: Staphylococcus epidermidis ATCC 12228
Escherichia coli UB1005 = system: Escherichia coli UB1005
[3] = system: Pseudomonas aeruginosa H187
[4] = system: Salmonella typhimurium C610
[5] = system: Escherichia coli ATCC 25922
[6] = system: Staphylococcus epidermidis C621
[7] = system: Salmonella typhimurium C587
Escherichia coli DC2 = system: Escherichia coli DC2
[8] = system: Staphylococcus aureus ATCC 25923
[9] = system: Enterococcus faecalis C625
[10] = system: Pseudomonas aeruginosa ATCC 27853
[11] = system: Corynebacterium xerosis C875
[12] = system: Pseudomonas aeruginosa H188
[13] = system: Staphylococcus aureus SAP 0017
[14] = system: Salmonella enterica subsp. enterica serovar Pullorum ATCC 7913
[15] = system: Streptococcus thermophilus YM-C
[16] = system: Staphylococcus aureus ATCC 29213
[17] = system: Lacticaseibacillus rhamnosus 7469
[18] = system: Salmonella enterica subsp. enterica serovar Typhimurium ATCC 14028
Escherichia coli 078 = system: Escherichia coli 078
Streptococcus agalactiae = system: Streptococcus agalactiae
[19] = system: Salmonella enterica subsp. enterica serovar Typhimurium C77-31
[20] = system: Streptococcus agalactiae CICC 10465
Micrococcus luteus A270 = system: Micrococcus luteus A270
Listeria innocua = system: Listeria innocua
[21] = system: Salmonella enterica subsp. enterica serovar Enteritidis
Escherichia coli = system: Escherichia coli

## CC[C@H](C)[C@H](NC(=O)[C@H](CC(N)=O)NC(=O)[C@H](CCCN=C(N)N)NC(=O)[C@H](Cc1c[nH]c2ccccc12)NC(=O)[C@@H](N)Cc1ccccc1)C(=O)N[C@@H](CCCN=C(N)N)C(=O)N[C@@H](CCCCN)C(=O)N[C@H](C(=O)N[C@@H](CCCN=C(N)N)C(N)=O)C(C)C [FWRNIRKVR]
[1]
  MIC: ≥ 196 µM

## CC[C@H](C)[C@H](NC(=O)[C@H](C)NC(=O)[C@H](CCCCN)NC(=O)[C@H](CC(C)C)NC(=O)[C@H](C)NC(=O)[C@@H](NC(=O)[C@H](Cc1cnc[nH]1)NC(=O)[C@H](CC(C)C)NC(=O)[C@@H](NC(=O)[C@@H](NC(=O)[C@H](CCCCN)NC(=O)[C@H](CC(C)C)NC(=O)[C@H](C)NC(=O)[C@H](CO)NC(=O)[C@H](CCCCN)NC(=O)[C@H](Cc1ccccc1)NC(=O)[C@@H](NC(=O)[C@H](CCCCN)NC(=O)[C@H](CC(C)C)NC(=O)[C@H](Cc1ccccc1)NC(=O)[C@H](CO)NC(=O)[C@H](CCCCN)NC(=O)[C@H](Cc1c[nH]c2ccccc12)NC(=O)[C@H](CCCCN)NC(C)=O)[C@@H](C)O)[C@@H](C)O)C(C)C)[C@@H](C)O)C(=O)N[C@@H](CO)C(=O)N[C@@H](CO)C(N)=O [KWKSFLKTFKSALKTVLHTALKAISS]
Bacillus subtilis C971
  MIC: 1.09 µM (≈ 3.24 µg/mL)
[2]
  MIC: 2 µM (≈ 5.95 µg/mL)
Escherichia coli UB1005
  MIC: 2.18 µM (≈ 6.49 µg/mL)
[3]
  MIC: 4.33 µM (≈ 12.9 µg/mL)
[4]
  MIC: 3.44 µM (≈ 10.2 µg/mL)
[5]
  MIC: 4 µM (≈ 11.9 µg/mL)
[6]
  MIC: 2.73 µM (≈ 8.11 µg/mL)
[7]
  MIC: 10.9 µM (≈ 32.4 µg/mL)
Escherichia coli DC2
  MIC: 1.7 µM (≈ 5.07 µg/mL)
[8]
  MIC: 10.9 µM and 8 µM
[9]
  MIC: 10.9 µM (≈ 32.4 µg/mL)
[10]
  MIC: 8 µM (≈ 23.8 µg/mL)
[11]
  MIC: 0.852 µM (≈ 2.53 µg/mL)
[12]
  MIC: 10.9 µM (≈ 32.4 µg/mL)
[13]
  MIC: 8.66 µM (≈ 25.8 µg/mL)

## CC[C@H](C)[C@H](NC(=O)[C@H](C)NC(=O)[C@H](CCCCN)NC(=O)[C@H](CC(C)C)NC(=O)[C@H](C)NC(=O)[C@@H](NC(=O)[C@H](Cc1cnc[nH]1)NC(=O)[C@H](CC(C)C)NC(=O)[C@@H](NC(=O)[C@@H](NC(=O)[C@H](CCCCN)NC(=O)[C@@H](NC(=O)[C@H](C)NC(=O)[C@H](CCCCN)NC(=O)[C@H](CCCCN)NC(=O)[C@H](Cc1ccccc1)NC(=O)[C@@H](NC(=O)[C@H](CCCCN)NC(=O)[C@H](CC(C)C)NC(=O)[C@H](Cc1ccccc1)NC(=O)[C@H](CO)NC(=O)[C@H](CCCCN)NC(=O)[C@H](Cc1c[nH]c2ccccc12)NC(=O)[C@H](CCCCN)NC(C)=O)[C@@H](C)O)C(C)C)[C@@H](C)O)C(C)C)[C@@H](C)O)C(=O)N[C@@H](CO)C(=O)N[C@@H](CO)C(N)=O [KWKSFLKTFKKAVKTVLHTALKAISS]
Bacillus subtilis C971
  MIC: 1.08 µM (≈ 3.24 µg/mL)
Escherichia coli UB1005
  MIC: 3.41 µM (≈ 10.2 µg/mL)
[3]
  MIC: 8.58 µM (≈ 25.8 µg/mL)
[4]
  MIC: 2.7 µM (≈ 8.11 µg/mL)
[6]
  MIC: 2.16 µM (≈ 6.49 µg/mL)
[7]
  MIC: 8.58 µM (≈ 25.8 µg/mL)
Escherichia coli DC2
  MIC: 1.35 µM (≈ 4.06 µg/mL)
[8]
  MIC: 10.8 µM (≈ 32.4 µg/mL)
[9]
  MIC: 10.8 µM (≈ 32.4 µg/mL)
[11]
  MIC: 1.35 µM (≈ 4.06 µg/mL)
[12]
  MIC: 10.8 µM (≈ 32.4 µg/mL)
[13]
  MIC: 5.4 µM (≈ 16.2 µg/mL)

## CC(C)C[C@H](NC(=O)[C@H](CCCN=C(N)N)NC(=O)[C@H](CC(C)C)NC(=O)[C@H](CC(N)=O)NC(=O)[C@H](CCCN=C(N)N)NC(=O)[C@H](CCC(N)=O)NC(=O)[C@H](Cc1c[nH]c2ccccc12)NC(=O)[C@@H](N)Cc1ccccc1)C(=O)N[C@@H](CCCN=C(N)N)C(=O)N[C@@H](CCCN=C(N)N)C(N)=O [FWQRNLRLRR]
[1]
  MIC: ≥ 173 µM

## CC[C@H](C)[C@H](NC(=O)[C@H](CC(C)C)NC(=O)[C@@H](NC(=O)[C@@H](N)CC(=O)O)[C@@H](C)CC)C(=O)N[C@H](C(=O)N[C@H](C(=O)NCC(=O)NCC(=O)N[C@@H](CCCCN)C(=O)N[C@@H](CCCN=C(N)N)C(=O)N[C@@H](CCCN=C(N)N)C(=O)N[C@@H](CCCCN)C(=O)N[C@@H](CCCCN)C(=O)N[C@@H](CCCN=C(N)N)C(=O)N[C@@H](CCCN=C(N)N)C(=O)N[C@@H](CCCN=C(N)N)C(N)=O)C(C)C)[C@@H](C)CC [DILIIVGGKRRKKRRR]
[2]
  MIC: 8 µM (≈ 15.7 µg/mL)
Escherichia coli UB1005
  MIC: 4 µM (≈ 7.85 µg/mL)
[14]
  MIC: 8 µM (≈ 15.7 µg/mL)
[15]
  MIC: ≥ 64 µM
[16]
  MIC: 4 µM (≈ 7.85 µg/mL)
[5]
  MIC: 4 µM (≈ 7.85 µg/mL)
[17]
  MIC: ≥ 64 µM
[8]
  MIC: 4 µM (≈ 7.85 µg/mL)
[18]
  MIC: 8 µM (≈ 15.7 µg/mL)
[10]
  MIC: 4 µM (≈ 7.85 µg/mL)
Escherichia coli 078
  MIC: 8 µM (≈ 15.7 µg/mL)
Streptococcus agalactiae
  MIC: 4 µM (≈ 7.85 µg/mL)
[19]
  MIC: 8 µM (≈ 15.7 µg/mL)
[20]
  MIC: 2 µM (≈ 3.93 µg/mL)

## CC(C)C[C@H](NC(=O)[C@@H](N)C(C)C)C(=O)N[C@@H](CO)C(=O)N[C@@H](C)C(=O)N[C@@H](C)C(=O)N[C@@H](CC(=O)O)C(=O)N[C@@H](CCCCN)C(=O)NCC(=O)N[C@@H](CC(N)=O)C(=O)N[C@H](C(=O)N[C@@H](CCCCN)C(=O)N[C@@H](C)C(=O)N[C@@H](C)C(=O)N[C@@H](Cc1c[nH]c2ccccc12)C(=O)NCC(=O)N[C@@H](CCCCN)C(=O)N[C@H](C(=O)NCC(=O)NCC(=O)N[C@@H](Cc1cnc[nH]1)C(=O)N[C@@H](C)C(=O)N[C@@H](C)C(=O)N[C@@H](CCC(=O)O)C(=O)N[C@@H](Cc1ccc(O)cc1)C(=O)NCC(=O)N[C@@H](C)C(=O)N[C@@H](CCC(=O)O)C(=O)O)C(C)C)C(C)C [VLSAADKGNVKAAWGKVGGHAAEYGAE]
Micrococcus luteus A270
  MIC: ≥ 38 µM
Listeria innocua
  MIC: 27 µM (≈ 71.7 µg/mL)
[21]
  MIC: ≥ 38 µM
Escherichia coli
  MIC: 54 µM (≈ 143 µg/mL)

## C[C@@H](O)[C@H](NC(=O)[C@H](CCCCN)NC(=O)[C@@H](NC(=O)[C@@H](NC(=O)[C@@H]1CCCN1C(=O)[C@@H](N)Cc1ccccc1)[C@@H](C)O)[C@@H](C)O)C(=O)N[C@@H](Cc1ccc(O)cc1)C(=O)N[C@@H](Cc1ccccc1)C(=O)N1CCC[C@H]1C(=O)N[C@@H](Cc1cnc[nH]1)C(=O)O [FPTTKTYFPH]
Micrococcus luteus A270
  MIC: 1 µM (≈ 1.24 µg/mL)
Listeria innocua
  MIC: 1 µM (≈ 1.24 µg/mL)
[21]
  MIC: 9 µM (≈ 11.1 µg/mL)
Escherichia coli
  MIC: 9 µM (≈ 11.1 µg/mL)

## CC[C@H](C)[C@H](NC(=O)[C@H](CC(C)C)NC(=O)[C@@H](NC(=O)[C@@H](N)CC(=O)O)[C@@H](C)CC)C(=O)N[C@H](C(=O)N[C@H](C(=O)NCC(=O)NCC(=O)N[C@@H](CCCN=C(N)N)C(=O)N[C@@H](CCCN=C(N)N)C(N)=O)C(C)C)[C@@H](C)CC [DILIIVGGRR]
[2]
  MIC: > 64 µM
Escherichia coli UB1005
  MIC: ≥ 64 µM
[14]
  MIC: ≥ 64 µM
[15]
  MIC: ≥ 64 µM
[16]
  MIC: > 64 µM
[5]
  MIC: > 64 µM
[17]
  MIC: ≥ 64 µM
[8]
  MIC: > 64 µM
[18]
  MIC: > 64 µM
[10]
  MIC: > 64 µM
Escherichia coli 078
  MIC: ≥ 64 µM
Streptococcus agalactiae
  MIC: ≥ 64 µM
[19]
  MIC: ≥ 64 µM
[20]
  MIC: ≥ 64 µM
